These are literature values, as cited in patent US10328040B2, “Therapeutic methods” (ARIZONA BOARD OF REGENTS ON BEHALF OF ARIZONA STATE …, priority 2014, dated 2019).

SMILES strings stand for the structures.

Series [1] deals with rat model of Parkinson's disease. Conditions: low dose.
The target of a further series is hRXRβ (Homo sapiens, UniProt P28702). Conditions: read-out: EC50 for the hRXRβ isoform.
Another series deals with RXR γ. As to conditions: CV-1 cell line; read-out: EC50 for RXR γ subtype.
A further series has as its system RXR β. Conditions: CV-1 cell line; read-out: EC50 for RXR β subtype.
For series [2], the system named is hRXR. Conditions: Caco-2 cells.
The target of series [3] is hRXR. Conditions: Caco-2 cells. The source holds these as a separate data set.

Sequence of hRXRβ (P28702 whole entry, canonical isoform): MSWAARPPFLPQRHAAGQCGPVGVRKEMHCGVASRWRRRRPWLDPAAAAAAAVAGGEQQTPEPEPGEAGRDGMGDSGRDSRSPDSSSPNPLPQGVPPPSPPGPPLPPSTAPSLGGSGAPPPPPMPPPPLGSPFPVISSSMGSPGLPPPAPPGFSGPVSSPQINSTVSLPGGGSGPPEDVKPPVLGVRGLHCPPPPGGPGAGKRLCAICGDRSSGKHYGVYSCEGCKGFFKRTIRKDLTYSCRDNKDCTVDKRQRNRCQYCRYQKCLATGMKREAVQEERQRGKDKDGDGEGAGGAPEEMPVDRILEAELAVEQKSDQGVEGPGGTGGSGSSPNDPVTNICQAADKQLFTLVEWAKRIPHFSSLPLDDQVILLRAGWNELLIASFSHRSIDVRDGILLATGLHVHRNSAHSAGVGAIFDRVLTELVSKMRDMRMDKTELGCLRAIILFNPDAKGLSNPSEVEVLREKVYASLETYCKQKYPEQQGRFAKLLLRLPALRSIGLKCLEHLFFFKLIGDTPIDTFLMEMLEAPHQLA

For the compound `C=C(c1ccc(C(=O)O)cc1)c1cc2c(cc1C)C(C)(C)CCC2(C)C` [Bexarotene], the PD symptoms result in series [1] is on record as “marked improvement in the PD symptoms”. Also, the “dopamine cells and natural behavior” value in series [1] (rat model of PD) was “restored dopamine cells and natural behavior”. Consider `Cc1cc2c(cc1-c1cc(/C=C/C(=O)O)ccc1O)C(C)(C)CCC2(C)C` [CD3254, (E)-3-(3-(1,2,3,4-tetrahydro-1,1,4,4,6-pentamethylnaphthylen-7-yl)-4-hydroxyphenyl)acrylic Acid], for which the EC50 at hRXRβ is around 10 nM. With `C=C(c1ccc(C(=O)O)cn1)c1cc2c(cc1C)C(C)(C)CCC2(C)C` [Compound 1], the EC50 in the series with RXR γ is […]; in the series with RXR β, […].

Regarding `C=C(c1ccc(C(=O)O)c(F)c1)c1cc2c(cc1C)C(C)(C)CCC2(C)C` [Compound 3], the concentration giving a half-maximal response (EC50) in the series with hRXR [2] was 43 nM. Besides, the Kd on hRXR [3] is 12 nM. With `Cc1cc2c(cc1C1(c3ccc(C(=O)O)cn3)CC1)C(C)(C)CCC2(C)C` [LGD100268], the concentration giving a half-maximal response (EC50) is […] in the series with RXR γ and […] in the series with RXR β.

Broadly, the EC50 is the concentration giving half of the maximal effect. As usually defined, the Kd is the free concentration of one partner at which half of the binding sites on the other are occupied at equilibrium, for simple one-to-one binding.
